From paper PMC5127787 (Frontiers in Microbiology, 2016) come the findings set out here.

This test deals with RecA (Escherichia coli, UniProt P0A7G6). As to the kind of experiment: biochemical.

One may read the IC50 as the point on the concentration scale where inhibition reaches its midpoint.

Sequence of RecA (P0A7G6 2-353): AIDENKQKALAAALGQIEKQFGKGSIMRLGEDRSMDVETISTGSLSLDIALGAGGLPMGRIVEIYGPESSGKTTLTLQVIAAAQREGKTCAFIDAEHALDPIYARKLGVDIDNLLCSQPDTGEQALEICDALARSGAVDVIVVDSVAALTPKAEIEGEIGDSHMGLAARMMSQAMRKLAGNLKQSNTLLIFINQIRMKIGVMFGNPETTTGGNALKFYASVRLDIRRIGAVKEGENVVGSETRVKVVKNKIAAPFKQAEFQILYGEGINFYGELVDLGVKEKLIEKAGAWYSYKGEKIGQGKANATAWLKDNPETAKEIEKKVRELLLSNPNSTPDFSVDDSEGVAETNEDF

In turn, `CN1CCN(c2ccc(N3C(=O)C=CC3=O)cc2)CC1` [AHU3] registered a half-maximal inhibitory concentration (IC50) of 7.72 µM.
